Reference: ChEMBL document CHEMBL1201862, “PubChem BioAssay data set” (2004)
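Tested at 5 concentrations; 48 h exposure; 96-well plates; endpoints linearly interpolated, else capped at highest concentration. Abbreviation: GI50, concentration required for 50% inhibition of growth.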 The source made the active and inactive calls. No stated cut-off is given here; in the data, active = GI50 up to about 1.1 µM and inactive = higher.

Legend:
Assay in all cases: DTP human tumour cell line panel, 48 h
786-0 = tested on: 786-0
A549 = tested on: A549
ACHN = tested on: ACHN
COLO 205 = tested on: COLO 205
DU-145 = tested on: DU-145
EKVX = tested on: EKVX
HCT-116 = tested on: HCT-116
HCT-15 = tested on: HCT-15
HOP-62 = tested on: HOP-62
HOP-92 = tested on: HOP-92
HT-29 = tested on: HT-29
Hs-578T = tested on: Hs-578T
IGROV-1 = tested on: IGROV-1
LOX IMVI = tested on: LOX IMVI
M14 = tested on: M14
MDA-MB-231 = tested on: MDA-MB-231
MDA-N = tested on: MDA-N
MOLT-4 = tested on: MOLT-4
Malme-3M = tested on: Malme-3M
NCI-H460 = tested on: NCI-H460
NCI-H522 = tested on: NCI-H522
NCI/ADR-RES = tested on: NCI/ADR-RES
OVCAR-3 = tested on: OVCAR-3
OVCAR-8 = tested on: OVCAR-8
PC-3 = tested on: PC-3
SF-268 = tested on: SF-268
SF-295 = tested on: SF-295
SK-MEL-2 = tested on: SK-MEL-2
SK-MEL-5 = tested on: SK-MEL-5
SK-OV-3 = tested on: SK-OV-3
SN12C = tested on: SN12C
SNB-75 = tested on: SNB-75
SR = tested on: SR
SW-620 = tested on: SW-620
T47D = tested on: T47D
UACC-257 = tested on: UACC-257
UACC-62 = tested on: UACC-62
A498 = tested on: A498
CCRF-CEM = tested on: CCRF-CEM
HCC 2998 = tested on: HCC 2998
KM12 = tested on: KM12
MCF7 = tested on: MCF7
MDA-MB-435 = tested on: MDA-MB-435
NCI-H226 = tested on: NCI-H226
NCI-H23 = tested on: NCI-H23
OVCAR-4 = tested on: OVCAR-4
RXF 393 = tested on: RXF 393
SK-MEL-28 = tested on: SK-MEL-28
SNB-19 = tested on: SNB-19
TK-10 = tested on: TK-10
U-251 = tested on: U-251
UO-31 = tested on: UO-31

Question: What does the source list for `CC(C)(C)[Si](C)(C)OCC1OC(n2cc(I)c(N)nc2=O)C(O[Si](C)(C)C(C)(C)C)C1O[Si](C)(C)C(C)(C)C` (stereo unspecified)?
Answer: GI50 (786-0): 1.99 µM (inactive); GI50 (A549): 6.58 µM (inactive); GI50 (ACHN): 10.2 µM (inactive); GI50 (COLO 205): 16.1 µM (inactive); GI50 (DU-145): 13.3 µM (inactive); GI50 (EKVX): 18.6 µM (inactive); GI50 (HCT-116): 9.42 µM (inactive); GI50 (HCT-15): 18.6 µM; GI50 (HOP-62): 14.5 µM (inactive); GI50 (HOP-92): 19.1 µM (inactive); GI50 (HT-29): 5.26 µM (inactive); GI50 (Hs-578T): 11.4 µM (inactive); GI50 (IGROV-1): 5.73 µM (inactive); GI50 (LOX IMVI): 5.43 µM (inactive); GI50 (M14): 5.04 µM (inactive); GI50 (MDA-MB-231): 13.3 µM (inactive); GI50 (MDA-N): 12.2 µM (inactive); GI50 (MOLT-4): 2.5 µM (inactive); GI50 (Malme-3M): 11.3 µM (inactive); GI50 (NCI-H460): 7.19 µM (inactive); GI50 (NCI-H522): 3.56 µM (inactive); GI50 (NCI/ADR-RES): 34.1 µM (inactive); GI50 (OVCAR-3): 10.5 µM (inactive); GI50 (OVCAR-8): 12.5 µM (inactive); GI50 (PC-3): 3.4 µM (inactive); GI50 (SF-268): 12.7 µM (inactive); GI50 (SF-295): 3.16 µM (inactive); GI50 (SK-MEL-2): 5.02 µM (inactive); GI50 (SK-MEL-5): 10.4 µM (inactive); GI50 (SK-OV-3): 15.5 µM (inactive); GI50 (SN12C): 8.28 µM (inactive); GI50 (SNB-75): 14.3 µM (inactive); GI50 (SR): 5.37 µM (inactive); GI50 (SW-620): 4.58 µM (inactive); GI50 (T47D): > 10 µM (inactive); GI50 (UACC-257): 11.5 µM (inactive); GI50 (UACC-62): 10.3 µM (inactive)

Question: For `CC1(CO)COC(C)(C)OC1`, which GI50 (A498) is on record?
Answer: > 100 µM (inactive)

Question: And the GI50 (A549)?
Answer: > 100 µM (inactive)

Question: And the GI50 (ACHN)?
Answer: > 100 µM (inactive)

Question: What about the GI50 (CCRF-CEM) of the same compound?
Answer: > 100 µM (inactive)

Question: And the GI50 (COLO 205)?
Answer: > 100 µM (inactive)

Question: What about the GI50 (DU-145) of the same compound?
Answer: > 100 µM (inactive)

Question: And the GI50 (HCC 2998)?
Answer: > 100 µM (inactive)

Question: And the GI50 (HCT-116)?
Answer: > 100 µM (inactive)

Question: What about the GI50 (HCT-15) of the same compound?
Answer: > 100 µM

Question: What about the GI50 (HOP-92) of the same compound?
Answer: > 100 µM (inactive)

Question: And the GI50 (HT-29)?
Answer: > 100 µM (inactive)

Question: And the GI50 (Hs-578T)?
Answer: > 100 µM (inactive)

Question: And the GI50 (KM12)?
Answer: > 100 µM (inactive)

Question: What about the GI50 (LOX IMVI) of the same compound?
Answer: > 100 µM (inactive)

Question: What about the GI50 (MCF7) of the same compound?
Answer: > 100 µM (inactive)

Question: What about the GI50 (MDA-MB-231) of the same compound?
Answer: > 100 µM (inactive)

Question: What about the GI50 (MDA-MB-435) of the same compound?
Answer: > 100 µM (inactive)

Question: And the GI50 (MDA-N)?
Answer: > 100 µM (inactive)

Question: What about the GI50 (MOLT-4) of the same compound?
Answer: > 100 µM (inactive)

Question: And the GI50 (NCI-H226)?
Answer: > 100 µM (inactive)

Question: And the GI50 (NCI-H23)?
Answer: > 100 µM (inactive)

Question: And the GI50 (NCI-H460)?
Answer: > 100 µM (inactive)

Question: And the GI50 (NCI-H522)?
Answer: > 100 µM (inactive)

Question: And the GI50 (NCI/ADR-RES)?
Answer: > 100 µM (inactive)

Question: What about the GI50 (OVCAR-3) of the same compound?
Answer: > 100 µM (inactive)

Question: What about the GI50 (OVCAR-4) of the same compound?
Answer: > 100 µM (inactive)

Question: And the GI50 (OVCAR-8)?
Answer: > 100 µM (inactive)

Question: What about the GI50 (PC-3) of the same compound?
Answer: > 100 µM (inactive)

Question: And the GI50 (RXF 393)?
Answer: > 100 µM (inactive)

Question: And the GI50 (SF-268)?
Answer: > 100 µM (inactive)

Question: And the GI50 (SF-295)?
Answer: > 100 µM (inactive)

Question: And the GI50 (SK-MEL-28)?
Answer: > 100 µM (inactive)

Question: And the GI50 (SK-MEL-5)?
Answer: > 100 µM (inactive)

Question: What about the GI50 (SK-OV-3) of the same compound?
Answer: > 100 µM (inactive)

Question: What about the GI50 (SN12C) of the same compound?
Answer: > 100 µM (inactive)

Question: What about the GI50 (SNB-19) of the same compound?
Answer: > 100 µM (inactive)

Question: What about the GI50 (SNB-75) of the same compound?
Answer: > 100 µM (inactive)

Question: What about the GI50 (SR) of the same compound?
Answer: > 100 µM (inactive)

Question: And the GI50 (SW-620)?
Answer: > 100 µM (inactive)

Question: What about the GI50 (T47D) of the same compound?
Answer: > 100 µM (inactive)

Question: And the GI50 (TK-10)?
Answer: > 100 µM (inactive)

Question: What about the GI50 (U-251) of the same compound?
Answer: > 100 µM (inactive)

Question: What about the GI50 (UACC-257) of the same compound?
Answer: > 100 µM (inactive)

Question: What about the GI50 (UO-31) of the same compound?
Answer: > 100 µM (inactive)
